{"source": "paper PMC6962389", "about": "“Somatostatin receptor mediated targeting of acute myeloid leukemia by photodynamic metal complexes for light induced apoptosis” (Scientific Reports, 2020)", "assay_type_in_all_cases": "cell-based, human", "key": {"HL60 cells": {"system": "HL60 cells", "experiment": "Determination of the IC50 in HL60 cells (trypan blue exclusion, light/dark)", "conditions": "10–100 µM", "experimental": "Figure 1 Uptake and IC50 studies of RU complex: confocal images of OCI-AML3 cells incubated with RU-SST (50 μm) (A) and RU-Alkyne control (RU-Alk) (100μm) (B) for 4 hrs. The laser intensity was measured for alexaflour (430 nm). Uptake characteristics with values of the integrated intensity (a.u.) per cell (C). Bar graphs indicate the average integrated intensity per cell in both experimental arms. Cells analysed for RU-SST (n = 45) and RU-Alk (n = 44). Data are represented as mean ± SEM. (D) IC50 was calculated in HL60 AML cell lines. Percent cell survival was measured by trypan blue exclusion after 4 h incubation with RU-Alk (control), RU-SST (irradiated) compared to RU-SST in the absence of light (dark RU). Experiments performed for dark RU-SST (n = 6); RU-Alk (n = 3), for RU-SST (n = 3). Data are represented as mean ± SEM. […]\nphenylalanine as an internal standard (Int. std.) was added to remove large proteins and the solution was centrifuged at […] for 30 min at 0 °C. […] The amount of RU-SST in each sample was determined as a ratio of the integration of the mass chromatogram of RU-SST to the int. std. […]\nFor this purpose, we chose a high SSTR2 expressing cell line, HL60 2 . […] The cell viability was quantified by trypan blue exclusion. IC50 values were calculated using R-statistical package. […]"}, "OCI-AML3 cells": {"system": "OCI-AML3 cells", "experiment": "CFC assay (clonogenic growth in methylcellulose), OCI-AML3", "conditions": "unconjugated control, 4 h incubation, day 14", "experimental": "(§1) To evaluate the toxicity of the bioconjugate on clonogenic progenitor cells, AML cell lines as well primary human cells were incubated with the compound for 4 hours. Subsequently, cells were washed and cell counts were determined via trypan blue exclusion. Colony forming cell unit (CFC) assays were performed as described previously. In all cases cell numbers placed in methylcellulose were calculated according to the initial cell number at the start of the experiment, not taking into account any cell loss during the incubation time. 1000 cells (OCI-AML3 and HL60) and 500 cells (THP1) were plated per dish (methocult H4330). For primary patient samples, 10,000 cells were plated per dish in methylcellulose H4330 (Stem Cell Technologies, Vancouver, BC, Canada) and supplemented with cytokines. For the CD34^+ enriched CB cells, 300 cells were plated per dish in methocult H4434 (Stem Cell Technologies, Vancouver, BC, Canada). Each experiment was performed in duplicates and values mentioned are Mean ± SEM.\nWe could detect a significant decrease in colony growth in the OCI AML3 cell line with a 92% reduction of colony growth when the cells were incubated with RU-SST and exposed to light compared to the cells treated with RU-SST and not exposed to light (Fig. 2A).\nSignificance was calculated using the Mann-Whitney test (** < 0.01). […]"}, "[1]": {"system": "primary AML patient samples (clonogenic progenitor cells)", "experiment": "CFC assay on primary AML patient samples", "parameters": "average reduction in CFC numbers, with exposure to light / % reduction of CFC: concentration or dose not given beside the values", "conditions": "for CFC/10^4 cells: 4 h incubation, day 14", "source_text": "Mononuclear cells were isolated from bone marrow (BM) or peripheral blood (PB) from patients with primary diagnosed AML, analyzed for their SSTR2 expression (n = 13) and cultured with the RU-SST bioconjugate to test the toxicity of the compound (n = 6). All patient samples were investigated by cytomorphological, cytogenetic and molecular analyses after written informed consent as described. Diagnosis was made according to the French-American-British criteria and the World Health Organization classification (Table 1)[11],[12]. The study was approved by the ethic committee of the University of Ulm. in accordance with the ethical principles of the declaration of Helsinki (http://www.wma.net/en/30publications/10policies/b3/index.html). Leukemic cells were thawed and kept in culture with culture conditions as mentioned previously.\nas §1"}, "CD34+ enriched CB cells": {"system": "CD34+ enriched CB cells", "experiment": "CFC assay on CD34+ enriched cord blood cells", "conditions": "unconjugated RU-Alkyne; ±4.88% SEM; n = 6 CB samples", "experimental": "Cells from cord blood (CB) were enriched for CD34^+ using the human CD34 Micro Bead Kit ultrapure (Miltenyi Biotec, Auburn, CA, USA) according to the manufacturer instructions.\nTo evaluate the toxicity of the bioconjugate on clonogenic progenitor cells, AML cell lines as well primary human cells were incubated with the compound for 4 hours. Subsequently, cells were washed and cell counts were determined via trypan blue exclusion. Colony forming cell unit (CFC) assays were performed as described previously. In all cases cell numbers placed in methylcellulose were calculated according to the initial cell number at the start of the experiment, not taking into account any cell loss during the incubation time. 1000 cells (OCI-AML3 and HL60) and 500 cells (THP1) were plated per dish (methocult H4330). […]\nTo evaluate, whether the effect of the compound was selective for AML stem and progenitor cells, we analysed the toxicity of the compound for CD34^+ enriched CB cells (n = 6). […]\nFigure 3 Effect of RU-complexes on clonogenicity of normal CD34^+ cells: cells from […] CD34^+ enriched cord blood (CB) samples (n = 6) were tested for the effect of both RUSST and RU-Alkyne compounds. […] Percent reduction was determined based on the colony numbers generated from CB cells treated with RU-SST and exposed to light compared to dark RU-SST. […] Significance calculated by Mann-Whitney test ** < 0.01."}}, "note": "Like-named read-outs stand apart in the source and are kept apart here."}
{"smiles": "C#Cc1ccnc(-c2ccccn2)c1.[Cl-].[Cl-].[Ru+2].c1ccc(-c2ccccn2)nc1.c1ccc(-c2ccccn2)nc1", "note": "[RU-Alkyne]", "values": [{"measurement": "IC50", "setting": "HL60 cells; 4 h incubation in the dark, washed, 470 nm LED 6 min (6.9 ± 0.9 J cm-2), probit regression, n = 3, mean ± SEM, read-out: IC50 after light irradiation", "value": "> 100", "unit": "µM"}, {"measurement": "IC50", "setting": "HL60 cells; 4 h incubation, not exposed to light, IC50 not reached with up to 100 µM, dark RU-SST n = 6, read-out: IC50 in the dark", "value": "> 100", "unit": "µM"}, {"measurement": "colony growth, exposed or not exposed to light", "setting": "OCI-AML3 cells", "value": "no comparable reduction in colony growth"}, {"measurement": "% reduction of CFC", "setting": "[1]; AML#1, 6 min RU-Alk (light) vs dark RU-SST", "value": 22, "unit": "%"}, {"measurement": "CFC/10^4 cells", "setting": "[1]; AML#1, 6 min RU-Alk (light)", "value": 78, "unit": "CFC/10^4 cells"}, {"measurement": "% reduction of CFC", "setting": "[1]; AML#1, Dark RU-Alk vs dark RU-SST", "value": 0, "unit": "%"}, {"measurement": "CFC/10^4 cells", "setting": "[1]; AML#1, Dark RU-Alk", "value": 153, "unit": "CFC/10^4 cells"}, {"measurement": "% reduction of CFC", "setting": "[1]; AML#2, 6 min RU-Alk (light) vs dark RU-SST", "value": 17.7, "unit": "%"}, {"measurement": "CFC/10^4 cells", "setting": "[1]; AML#2, 6 min RU-Alk (light)", "value": 208, "unit": "CFC/10^4 cells"}, {"measurement": "% reduction of CFC", "setting": "[1]; AML#2, Dark RU-Alk vs dark RU-SST", "value": 2.0, "unit": "%"}, {"measurement": "CFC/10^4 cells", "setting": "[1]; AML#2, Dark RU-Alk", "value": 247, "unit": "CFC/10^4 cells"}, {"measurement": "% reduction of CFC", "setting": "[1]; AML#3, 6 min RU-Alk (light) vs dark RU-SST", "value": 0, "unit": "%"}, {"measurement": "CFC/10^4 cells", "setting": "[1]; AML#3, 6 min RU-Alk (light)", "value": 211, "unit": "CFC/10^4 cells"}, {"measurement": "% reduction of CFC", "setting": "[1]; AML#3, Dark RU-Alk vs dark RU-SST", "value": 0, "unit": "%"}, {"measurement": "CFC/10^4 cells", "setting": "[1]; AML#3, Dark RU-Alk", "value": 187, "unit": "CFC/10^4 cells"}, {"measurement": "% reduction of CFC", "setting": "[1]; AML#4, 6 min RU-Alk (light) vs dark RU-SST", "value": 48.9, "unit": "%"}, {"measurement": "CFC/10^4 cells", "setting": "[1]; AML#4, 6 min RU-Alk (light)", "value": 24, "unit": "CFC/10^4 cells"}, {"measurement": "% reduction of CFC", "setting": "[1]; AML#4, Dark RU-Alk vs dark RU-SST", "value": 38.2, "unit": "%"}, {"measurement": "CFC/10^4 cells", "setting": "[1]; AML#4, Dark RU-Alk", "value": 29, "unit": "CFC/10^4 cells"}, {"measurement": "% reduction of CFC", "setting": "[1]; AML#5, 6 min RU-Alk (light) vs dark RU-SST", "value": 41.5, "unit": "%"}, {"measurement": "CFC/10^4 cells", "setting": "[1]; AML#5, 6 min RU-Alk (light)", "value": 69, "unit": "CFC/10^4 cells"}, {"measurement": "% reduction of CFC", "setting": "[1]; AML#5, Dark RU-Alk vs dark RU-SST", "value": 38.9, "unit": "%"}, {"measurement": "CFC/10^4 cells", "setting": "[1]; AML#5, Dark RU-Alk", "value": 72, "unit": "CFC/10^4 cells"}, {"measurement": "% reduction of CFC", "setting": "[1]; AML#6, 6 min RU-Alk (light) vs dark RU-SST", "value": 58.7, "unit": "%"}, {"measurement": "CFC/10^4 cells", "setting": "[1]; AML#6, 6 min RU-Alk (light)", "value": 29, "unit": "CFC/10^4 cells"}, {"measurement": "% reduction of CFC", "setting": "[1]; AML#6, Dark RU-Alk vs dark RU-SST", "value": 48.5, "unit": "%"}, {"measurement": "CFC/10^4 cells", "setting": "[1]; AML#6, Dark RU-Alk", "value": 36, "unit": "CFC/10^4 cells"}, {"measurement": "average reduction in CFC numbers, with exposure to light", "setting": "[1]; RU-Alkyne with exposure to light, 6 primary AML samples, mean (SEM), not significant", "value": 31.4, "unit": "%"}, {"measurement": "reduction in colony numbers compared to dark RU-SST", "setting": "CD34+ enriched CB cells", "value": 18.59, "unit": "%"}]}
